Measured values as given in PMC7174758, “Synthesis and Biological Evaluation of HDAC Inhibitors With a Novel Zinc Binding Group” (Frontiers in Chemistry, 2020).

Tests used:
[1] = system: acetyl-α-tubulin; assay: Western blot, acetylation of α-tubulin in Hela cells; type: cell-based, human; conditions: 5 μM, reference drug
Experimental: (§1) Afterwards, the Hela cells were collected using centrifugation, and were then lysed by the lysate, which were carried out further centrifugation at 12,000 rpm for 30 min. The protein of supernatant obtained by centrifugation was quantified using the BCA kit (Beijing Solarbio Science & Technology Co., Ltd.), and the protein extracts were mixed with the SDS-PAGE protein loading buffer (Beijing Solarbio Science & Technology Co., Ltd.), which were subject to 100°C water bath for 10 min to sufficiently denaturate. The gel was gelatinized using the SDS Gel Kit (Beijing Solarbio Science & Technology Co., Ltd.) and protein extracts were separated by protein SDS-polyacrylamide gel electrophoresis and then transferred to Immobilon-NC Membrane (Beijing Solarbio Science & Technology Co., Ltd.). After the blocking with 5% non-fat dried milk in TBS for 90 min at room temperature, the membranes were incubated overnight with specific primary antibodies (AFFINITY BIOSCIENCE) at 4°C, which were further incubated with secondary antibodies for 2 h after washing three times with TBST. The chemiluminescence analysis system was applied to label the target protein with a specific primary antibody and the target protein was detected using a specific antibody.

[2] = system: acetyl-histone H3; assay: Western blot, acetylation of histone H3 in Hela cells; type: cell-based, human; conditions: 5 μM, reference drug
Experimental: as §1

[3] = system: A549; assay: MTT anti-proliferative assay, A549; conditions: Homo sapiens, A549, 48 h, read-out: IC50 A549
Experimental: (§2) The antitumor bioactivities of the tittle compounds in vitro were firstly evaluated against four different human tumor cell lines [breast lung cancer (A549), cervical cancer (Hela), liver cancer (HepG2), breast cancer (MCF-7)] via MTT assay, and a normal cell line [human lung fibroblast (WI-38)] was applied to assess the safety of the synthesized compounds. […] In this study, the tested compounds were diluted to the required concentration with culture medium, and growth inhibitory effects against the cell lines of the tittle compounds were determined by MTT colorimetric assay. […] The microplate reader was adopted to record the absorbance at 490 nm for each well of the plates.

[4] = system: WI-38; assay: MTT cytotoxicity assay, normal cell line WI-38; conditions: Homo sapiens, WI-38, 48 h, read-out: IC50 WI-38
Experimental: as §2

[5] = system: HepG2; assay: MTT anti-proliferative assay, HepG2; conditions: Homo sapiens, HepG2, 48 h, read-out: IC50 HepG2
Experimental: as §2

[6] = system: MCF-7; assay: MTT anti-proliferative assay, MCF-7; conditions: Homo sapiens, MCF7, 48 h, read-out: IC50 MCF-7
Experimental: as §2

[7] = system: Hela; assay: MTT anti-proliferative assay, Hela; conditions: Homo sapiens, 48 h, read-out: IC50 Hela
Experimental: as §2

Compound | acetylation level of α-Tubulin [1] | acetylation level of histone H3 [2] | melting point [°C] | IC50 [3] [µM] | IC50 [4] [µM] | IC50 [5] [µM] | IC50 [6] [µM] | IC50 [7] [µM]
O=C(CCCCCCC(=O)Nc1ccccc1)NO [SAHA, suberoylanilide hydroxamic acid, reference compound] | increase | up-regulated |  |  |  |  |  | 
CC(O)CNC(=O)CCCCCNC(=O)c1ccc(F)cc1 (centres unmarked) [a1, 4-fluoro-N-(6-((2-hydroxypropyl)amino)-6-oxohexyl) benzamide] |  |  | 99.3 to 100.8 |  |  |  |  | 
CC(O)CNC(=O)CCCCCNC(=O)c1ccc(Cl)cc1 (centres unmarked) [a2, 4-chloro-N-(6-((2-hydroxypropyl)amino)-6-oxohexyl) benzamide] |  |  | 93.9 to 95.7 |  |  |  |  | 
CC(O)CNC(=O)CCCCCNC(=O)c1ccccc1Cl (centres unmarked) [a3, 2-chloro-N-(6-((2-hydroxypropyl)amino)-6-oxohexyl) benzamide] |  |  | 110.2 to 113.6 |  |  |  |  | 
CC(O)CNC(=O)CCCCCNC(=O)c1ccc(Br)cc1 (centres unmarked) [a4, 4-bromo-N-(6-((2-hydroxypropyl)amino)-6-oxohexyl) benzamide] |  |  | 112.4 to 114.7 |  |  |  |  | 
CC(O)CNC(=O)CCCCCNC(=O)c1ccc(I)cc1 (centres unmarked) [a5, N-(6-((2-hydroxypropyl)amino)-6-oxohexyl)-4-iodobenzamide] |  |  | 148.7 to 150.2 | 45.6 ± 2.81 | 158 ± 3.16 | 68.9 ± 1.95 | 63.2 ± 4.32 | 35.8 ± 2.43
Cc1ccc(C(=O)NCCCCCC(=O)NCC(C)O)cc1 (centres unmarked) [a6, N-(6-((2-hydroxypropyl)amino)-6-oxohexyl)-4-methylbenzamide] |  |  | 114.2 to 116.8 | 39.2 ± 3.88 | 97.2 ± 6.36 | 74.9 ± 2.05 | 44.8 ± 2.01 | 19.6 ± 3.92
CC(O)CNC(=O)CCCCCNC(=O)c1ccc([N+](=O)[O-])cc1 (centres unmarked) [a7, N-(6-((2-hydroxypropyl)amino)-6-oxohexyl)-4-nitrobenzamide] |  |  | 124.3 to 126.1 | 43.8 ± 4.82 | 211 ± 4.32 | 88.3 ± 8.64 | 58.7 ± 3.86 | 25.8 ± 8.93
CC(O)CNC(=O)CCCCCNC(=O)c1ccc(C(F)(F)F)cc1 (centres unmarked) [a9, N-(6-((2-hydroxypropyl)amino)-6-oxohexyl)-4-(trifluoromethyl) benzamide] |  |  | 106.3 to 108.1 |  |  |  |  | 
CC(O)CNC(=O)CCCCCNC(=O)c1ccc(-c2ccccc2)cc1 (centres unmarked) [a10, N-(6-((2-hydroxypropyl)amino)-6-oxohexyl)-[1, 1’-biphenyl]-4-carboxamide] |  |  | 140.3 to 142.6 | 19.8 ± 2.11 | 126 ± 7.83 | 26.8 ± 3.22 | 48.4 ± 2.21 | 38.4 ± 1.01
CC(O)CNC(=O)CCCCCNC(=O)c1ccc2ccccc2c1 (centres unmarked) [a11, N-(6-((2-hydroxypropyl)amino)-6-oxohexyl)-2-naphthamide] |  |  | 111.6 to 113.6 | 26.6 ± 2.81 | 109 ± 4.63 | 29.2 ± 3.22 | 38.4 ± 2.12 | 21.8 ± 2.42
CC(O)CNC(=O)CCCCCNC(=O)c1ccc2c(c1)OCO2 (centres unmarked) [a12, N-(6-((2-hydroxypropyl)amino)-6-oxohexyl) benzo [d][1,3] dioxole-5-carboxamide] |  |  | 123.6 to 125.3 | 28.4 ± 2.01 | 147 ± 3.82 | 37.6 ± 2.89 | 44.6 ± 4.62 | 35.6 ± 0.89
O=C(CCCCCNC(=O)c1ccccc1)NCCO [b1, N-(6-((2-hydroxyethyl)amino)-6-oxohexyl) benzamide] |  |  | 111.2 to 114.5 | 33.1 ± 0.96 | 194 ± 5.32 | 84.5 ± 1.33 | 94.3 ± 15.3 | 90.4 ± 2.21
O=C(CCCCCNC(=O)c1ccc(F)cc1)NCCO [b2, 4-fluoro-N-(6-((2-hydroxyethyl)amino)-6-oxohexyl) benzamide] |  |  | 131.2 to 132.9 |  |  |  |  | 
O=C(CCCCCNC(=O)c1ccc(Cl)cc1)NCCO [b3, 4-chloro-N-(6-((2-hydroxyethyl)amino)-6-oxohexyl) benzamide] |  |  | 112.4 to 115.9 |  |  |  |  | 
O=C(CCCCCNC(=O)c1ccc(Br)cc1)NCCO [b4, 4-bromo-N-(6-((2-hydroxyethyl)amino)-6-oxohexyl) benzamide] |  |  | 115.7 to 118.7 |  |  |  |  | 
O=C(CCCCCNC(=O)c1ccc(I)cc1)NCCO [b5, N-(6-((2-hydroxyethyl)amino)-6-oxohexyl)-4-iodobenzamide] |  |  | 150.4 to 150.9 | 48.3 ± 0.92 | 130 ± 5.02 | 90.3 ± 8.18 | 64.5 ± 11.1 | 61 ± 5.31
Cc1ccc(C(=O)NCCCCCC(=O)NCCO)cc1 [b6, N-(6-((2-hydroxyethyl)amino)-6-oxohexyl)-4-methylbenzamide] |  |  |  | 26.9 ± 4.79 | 144 ± 8.05 | 77.2 ± 4.43 | 99.2 ± 1.9 | 59.7 ± 2.67
Cc1cc(C)cc(C(=O)NCCCCCC(=O)NCCO)c1 [b7, N-(6-((2-hydroxyethyl)amino)-6-oxohexyl)-3,5-dimethylbenzamide] |  |  | 110.1 to 111.8 | 32.3 ± 3.13 | 184 ± 7.16 | 88 ± 9.39 | 83.6 ± 23.2 | 96.8 ± 2.09
O=C(CCCCCNC(=O)c1ccc(C(F)(F)F)cc1)NCCO [b9, N-(6-((2-hydroxyethyl)amino)-6-oxohexyl)-4-(trifluoromethyl) benzamide] |  |  | 105 to 106.3 |  |  |  |  | 
O=C(CCCCCNC(=O)c1ccc2c(c1)OCO2)NCCO [b10, N-(6-((2-hydroxyethyl)amino)-6-oxohexyl) benzo[d][1,3] dioxole-5-carboxamide] |  |  | 94.5 to 96.7 | 28.2 ± 0.87 | 193 ± 6.53 | 33.9 ± 2.71 | 93.2 ± 3.53 | 38.1 ± 1.28
CN(C)c1ccc(C(=O)NCCCCCC(=O)NCCO)cc1 [b11, 4-(dimethylamino)-N-(6-((2-hydroxyethyl)amino)-6-oxohexyl) benzamide] |  |  | 120.4 to 122.3 |  |  |  |  | 
O=C(CCCCCNC(=O)c1ccc2ccccc2c1)NCCO [b12, N-(6-((2-hydroxyethyl)amino)-6-oxohexyl)-2-naphthamide] |  |  | 115.1 to 117.8 | 33.4 ± 2.12 | 161 ± 8.64 | 37.6 ± 6.14 | 98.7 ± 7.67 | 76.4 ± 6.78
